In this experiment the target is EGFR T790M/L858R Ba/F3 cell line (Homo sapiens, UniProt P00533, T790M/L858R, cells depend on it). The experiment is described as follows: Ba/F3 cell proliferation model. The note with it: combined with cetuximab (% cetuximab, 1.0 μM drug concentration with 1.0 μg/mL cetuximab). It counts as cell-based, murine. The source says:
The selectivity between wild-type EGFR and EGFR containing one or more mutations as described herein can also be measured using cellular proliferation assays where cell proliferation is dependent on kinase activity. For example, murine Ba/F3 cells transfected with a suitable version of wild-type EGFR (such as VIII; containing a WT EGFR kinase domain), or Ba/F3 cells transfected with L858R/T790M, Del/T790M/L718Q, L858R/T790M/L718Q, L858R/T790M/C797S, Del/T790M/C797S, L858R/T790M/I941R, or Exon 19 deletion/T790M can be used.
Cell lines are plated in media. The compounds of the present disclosure are then serially diluted and transferred to the cells. Cell viability is measured via a luminescent readout. Data is analyzed by non-linear regression curve-fitting. […]
The EGFR mutant L858R, Del E746_A750, L858R/T790M, DelE746_A750/T790M, L858R/T790M/C797S and Del/T790M/C797S Ba/F3 cells have been previously described (Zhou, W., Ercan, D., Chen, L., Yun, C. H., Li, D., Capelletti, M., Cortot, A. B., Chirieac, L., Iacob, R. E., Padera, R., et al. “Novel mutant-selective EGFR kinase inhibitors against EGFR T790M,” Nature 462, (2009), 1070-1074). All cell lines were maintained in RPMI 1640 (Cellgro; Mediatech Inc., Herndon, Calif.) supplemented with 10% FBS 100 units/mL penicillin, 100 units/mL streptomycin, and 2 mM glutamine. L858R cells were maintained in ACL-4 media (Invitrogen, Carlsbad, Calif.) supplemented with 5% FBS, 100 units/mL penicillin, 100 units/mL streptomycin, and 2 mM glutamine. The EGFR I941R mutation was introduced via site directed mutagenesis using the Quick Change Site-Directed Mutagenesis kit (Stratagene; La Jolla, Calif.) according to the manufacturer's instructions. All constructs were confirmed by DNA sequencing. The constructs were shuttled into the retroviral vector JP 1540 using the BD Creator™ System (BD Biosciences). Ba/F3 cells were infected with retrovirus and according to standard protocols, as described previously (Zhou et al, Nature 2009). Stable clones were obtained by selection in puromycin (2 μg/ml).
Growth and inhibition of growth was assessed by MTS assay and was performed according to previously established methods (Zhou et al., Nature 2009). The MTS assay is a colorimetric method for determining the number of viable cells that is based on the bioreduction of MTS by cells to a formazan product that is soluble in cell culture medium and can be detected spectrophotometrically. Ba/F3 cells of different EGFR genotypes were exposed to treatment for 72 hours and the number of cells used per experiment determined empirically and has been previously established (Zhou et al., Nature 2009). All experimental points were set up in six wells and all experiments were repeated at least three times. […] The curves were fitted using a non-linear regression model with a sigmoidal dose response.
Inhibition data of an EGFR T790M/L858R Ba/F3 cell line.
Chain of EGFR T790M/L858R Ba/F3 cell line (P00533 whole entry T790M/L858R, the tested form may be a part): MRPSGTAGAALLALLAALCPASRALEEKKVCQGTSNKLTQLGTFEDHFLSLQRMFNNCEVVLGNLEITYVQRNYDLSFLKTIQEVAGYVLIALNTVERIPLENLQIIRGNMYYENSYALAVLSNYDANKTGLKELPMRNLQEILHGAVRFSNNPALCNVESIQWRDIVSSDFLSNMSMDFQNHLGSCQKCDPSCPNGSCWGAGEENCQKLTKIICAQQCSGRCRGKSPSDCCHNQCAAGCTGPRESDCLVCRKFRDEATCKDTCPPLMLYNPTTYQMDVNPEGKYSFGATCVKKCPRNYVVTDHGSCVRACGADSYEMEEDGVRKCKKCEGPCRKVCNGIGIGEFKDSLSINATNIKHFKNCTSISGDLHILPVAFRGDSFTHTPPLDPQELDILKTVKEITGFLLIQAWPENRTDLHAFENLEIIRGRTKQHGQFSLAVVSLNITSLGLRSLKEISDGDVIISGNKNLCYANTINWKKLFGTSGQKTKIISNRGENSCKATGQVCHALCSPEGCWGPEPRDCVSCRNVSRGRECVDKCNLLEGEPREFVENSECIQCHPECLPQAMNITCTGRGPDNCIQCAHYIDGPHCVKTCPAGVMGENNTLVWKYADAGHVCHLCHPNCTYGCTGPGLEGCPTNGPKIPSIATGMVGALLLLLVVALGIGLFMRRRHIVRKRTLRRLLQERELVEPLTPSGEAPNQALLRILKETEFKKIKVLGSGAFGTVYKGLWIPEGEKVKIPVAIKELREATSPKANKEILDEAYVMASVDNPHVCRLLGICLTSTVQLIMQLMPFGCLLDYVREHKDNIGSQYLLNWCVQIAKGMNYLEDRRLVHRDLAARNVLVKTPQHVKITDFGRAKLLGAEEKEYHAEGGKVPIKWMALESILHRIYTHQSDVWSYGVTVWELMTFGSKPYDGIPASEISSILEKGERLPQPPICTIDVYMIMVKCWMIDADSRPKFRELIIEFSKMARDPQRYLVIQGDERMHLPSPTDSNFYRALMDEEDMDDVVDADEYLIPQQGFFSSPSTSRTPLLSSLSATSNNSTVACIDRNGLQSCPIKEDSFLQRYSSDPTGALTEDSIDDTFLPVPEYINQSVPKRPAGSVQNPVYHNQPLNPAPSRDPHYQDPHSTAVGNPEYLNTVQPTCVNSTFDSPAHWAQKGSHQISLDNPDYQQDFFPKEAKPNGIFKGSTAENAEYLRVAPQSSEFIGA
For the compound `Cc1cccc(C)c1NC(=O)[C@@H](c1ccccc1)N1Cc2ccccc2C1=O` [Compound I-54, (R)-N-(2,6-dimethylphenyl)-2-(1-oxoisoindolin-2-yl)-2-phenylacetamide], the “Activity (% inhibition)” value is “A (a % inhibition of about 75%)”.
For `O=C(Nc1ccccc1F)[C@@H](c1ccccc1)N1Cc2ccccc2C1=O` [Compound I-55, (R)-N-(2-fluorophenyl)-2-(1-oxoisoindolin-2-yl)-2-phenylacetamide] the value was “B (a % inhibition of between about 50% to about 75%)”; for `O=C(Nc1ncccc1F)[C@@H](c1ccccc1)N1Cc2ccccc2C1=O` [Compound I-56, (R)-N-(3-fluoropyridin-2-yl)-2-(1-oxoisoindolin-2-yl)-2-phenylacetamide], “B (a % inhibition of between about 50% to about 75%)”; for `O=C(Nc1ncccc1Cl)[C@@H](c1ccccc1)N1Cc2ccccc2C1=O` [Compound I-57, (R)-N-(3-chloropyridin-2-yl)-2-(1-oxoisoindolin-2-yl)-2-phenylacetamide], “A (a % inhibition of about 75%)”.
Take `CN(C(=O)[C@@H](c1ccccc1)N1Cc2ccccc2C1=O)c1nccs1` [Compound I-58, (R)-N-methyl-2-(1-oxoisoindolin-2-yl)-2-phenyl-N-(thiazol-2-yl)acetamide]: the “Activity (% inhibition)” value is recorded as “B (a % inhibition of between about 50% to about 75%)”.
With `O=C(Nc1nccs1)[C@@H](c1ccccc1)N1Cc2ccc(-c3ccccc3)cc2C1=O` [Compound I-59, (R)-2-(1-oxo-6-phenylisoindolin-2-yl)-2-phenyl-N-(thiazol-2-yl)acetamide], the “Activity (% inhibition)” value is listed as “C (a % inhibition of between about 25% to about 50%)”.
In the case of `O=C(Nc1nccs1)[C@@H](c1ccccc1)N1Cc2ccc(-c3cccnc3)cc2C1=O` [Compound I-60, (R)-2-(1-oxo-6-(pyridin-3-yl)isoindolin-2-yl)-2-phenyl-N-(thiazol-2-yl)acetamide], the “Activity (% inhibition)” value is “C (a % inhibition of between about 25% to about 50%)”.
Then `O=C(Nc1nccs1)[C@@H](c1ccccc1)N1Cc2ccc(-c3ccncc3)cc2C1=O` [Compound I-61, (R)-2-(1-oxo-6-(pyridin-4-yl)isoindolin-2-yl)-2-phenyl-N-(thiazol-2-yl)acetamide], with “C (a % inhibition of between about 25% to about 50%)”; and `O=C(Nc1nccs1)[C@@H](c1ccccc1)N1Cc2ccc(-c3cncnc3)cc2C1=O` [Compound I-62, (R)-2-(1-oxo-6-(pyrimidin-5-yl)isoindolin-2-yl)-2-phenyl-N-(thiazol-2-yl)acetamide], with “B (a % inhibition of between about 50% to about 75%)”.
For `CCn1cc(-c2ccc3c(c2)C(=O)N([C@@H](C(=O)Nc2nccs2)c2ccccc2)C3)cn1` [Compound I-63, (R)-2-(6-(1-ethyl-1H-pyrazol-4-yl)-1-oxoisoindolin-2-yl)-2-phenyl-N-(thiazol-2-yl)acetamide] the value was “C (a % inhibition of between about 25% to about 50%)”; for `O=C(Nc1nccs1)[C@@H](c1ccccc1)N1Cc2ccc(-c3cn[nH]c3)cc2C1=O` [Compound I-64, (R)-2-(1-oxo-6-(1H-pyrazol-4-yl)isoindolin-2-yl)-2-phenyl-N-(thiazol-2-yl)acetamide], “B (a % inhibition of between about 50% to about 75%)”.
Then `O=C(Nc1nccs1)[C@@H](c1ccccc1)N1Cc2ccc(-c3ccc4cc[nH]c4c3)cc2C1=O` [Compound I-67, (R)-2-(6-(1H-indol-6-yl)-1-oxoisoindolin-2-yl)-2-phenyl-N-(thiazol-2-yl)acetamide], with “C (a % inhibition of between about 25% to about 50%)”; and `O=C(Nc1nccs1)[C@@H](c1ccccc1)N1Cc2ccc(-c3cccc4cccnc34)cc2C1=O` [Compound I-71, (R)-2-(1-oxo-6-(quinolin-8-yl)isoindolin-2-yl)-2-phenyl-N-(thiazol-2-yl)acetamide], with “C (a % inhibition of between about 25% to about 50%)”; and `COC(=O)c1ccc(-c2ccc3c(c2)C(=O)N([C@@H](C(=O)Nc2nccs2)c2ccccc2)C3)cc1` [Compound I-72, methyl (R)-4-(3-oxo-2-(2-oxo-1-phenyl-2-(thiazol-2-ylamino)ethyl)isoindolin-5-yl)benzoate], with “B (a % inhibition of between about 50% to about 75%)”.
For the compound `Nc1cccc(-c2ccc3c(c2)C(=O)N([C@@H](C(=O)Nc2nccs2)c2ccccc2)C3)c1` [Compound I-73, (R)-2-(6-(3-aminophenyl)-1-oxoisoindolin-2-yl)-2-phenyl-N-(thiazol-2-yl)acetamide], the “Activity (% inhibition)” value is given as “C (a % inhibition of between about 25% to about 50%)”.
For `O=C(Nc1nccs1)[C@@H](c1ccccc1)N1Cc2ccc(-c3ccc(OC(F)(F)F)cc3)cc2C1=O` [Compound I-74, (R)-2-(1-oxo-6-(4-(trifluoromethoxy)phenyl)isoindolin-2-yl)-2-phenyl-N-(thiazol-2-yl)acetamide] the value was “B (a % inhibition of between about 50% to about 75%)”; for `O=C(Nc1nccs1)[C@@H](c1ccccc1)N1Cc2ccc(-c3cccc(F)c3)cc2C1=O` [Compound I-76, (R)-2-(6-(3-fluorophenyl)-1-oxoisoindolin-2-yl)-2-phenyl-N-(thiazol-2-yl)acetamide], “B (a % inhibition of between about 50% to about 75%)”; for `O=C(Nc1nccs1)[C@@H](c1ccccc1)N1Cc2ccc(-c3ccc(F)cc3)cc2C1=O` [Compound I-77, (R)-2-(6-(4-fluorophenyl)-1-oxoisoindolin-2-yl)-2-phenyl-N-(thiazol-2-yl)acetamide], “B (a % inhibition of between about 50% to about 75%)”.
Then `O=C(O)c1ccc(-c2ccc3c(c2)C(=O)N([C@@H](C(=O)Nc2nccs2)c2ccccc2)C3)cc1` [Compound I-78, (R)-4-(3-oxo-2-(2-oxo-1-phenyl-2-(thiazol-2-ylamino)ethyl)isoindolin-5-yl)benzoic acid], with “A (a % inhibition of about 75%)”; and `COc1ccc(-c2ccc3c(c2)C(=O)N([C@@H](C(=O)Nc2nccs2)c2ccccc2)C3)c(OC)c1` [Compound I-80, (R)-2-(6-(2,4-dimethoxyphenyl)-1-oxoisoindolin-2-yl)-2-phenyl-N-(thiazol-2-yl)acetamide], with “C (a % inhibition of between about 25% to about 50%)”.
For `CN(C)CCCCNC(=O)c1ccc(-c2ccc3c(c2)C(=O)N([C@@H](C(=O)Nc2nccs2)c2ccccc2)C3)cc1` [Compound I-82, (R)-N-(4-(dimethylamino)butyl)-4-(3-oxo-2-(2-oxo-1-phenyl-2-(thiazol-2-ylamino)ethyl)isoindolin-5-yl)benzamide] the value was “C (a % inhibition of between about 25% to about 50%)”.
As for `O=C(NCCN1CCOCC1)c1ccc(-c2ccc3c(c2)C(=O)N([C@@H](C(=O)Nc2nccs2)c2ccccc2)C3)cc1` [Compound I-83, (R)-N-(2-morpholinoethyl)-4-(3-oxo-2-(2-oxo-1-phenyl-2-(thiazol-2-ylamino)ethyl)isoindolin-5-yl)benzamide], the “Activity (% inhibition)” value is on record as “D (a % inhibition of between about 0% to about 25%)”.
For `O=C(NCCCN1CCOCC1)c1ccc(-c2ccc3c(c2)C(=O)N([C@@H](C(=O)Nc2nccs2)c2ccccc2)C3)cc1` [Compound I-84, (R)-N-(3-morpholinopropyl)-4-(3-oxo-2-(2-oxo-1-phenyl-2-(thiazol-2-ylamino)ethyl)isoindolin-5-yl)benzamide] the value was “D (a % inhibition of between about 0% to about 25%)”.
Then `O=C(Nc1nccs1)[C@@H](c1ccccc1)N1Cc2ccc(-c3ccc(C(=O)N4CCOCC4)cc3)cc2C1=O` [Compound I-85, (R)-2-(6-(4-(morpholine-4-carbonyl)phenyl)-1-oxoisoindolin-2-yl)-2-phenyl-N-(thiazol-2-yl)acetamide], with “D (a % inhibition of between about 0% to about 25%)”.

(Values after patent US10385019B2, “Inhibitors of EGFR and methods of use thereof” (Dana-Farber Cancer Institute, Inc., priority 2015, dated 2019).)
